Assay results taken from US20170119775A1, “TREATMENT OF COGNITIVE DISORDERS” (Algiax Pharmaceuticals GmbH, priority 2014, published 2017).

What was measured:
[1] = test system: male Wistar rats; test: Object recognition task (ORT), natural forgetting, 24-h interval; assay type: in vivo, rat; conditions: 24 h delay, mean (SEM)
Experimental: In example 1, the compound AP-61 a 7-(4-tert butyl-cyclohexyl)-imidazotriazione (a compound of the formula II) was tested in the ORT in 3-4 month old male Wistar rats using a 24-h interval between the trials to induce natural forgetting.
(§1) One group of twenty four 3-4 month old male Wistar rats (Charles River, Sulzfeld, Germany) were used (average body weight at the beginning of the study: 365 g). All animals were housed individually in standard green line Tecniplast IVC cages on sawdust bedding. The animals were housed on a reversed 12/12-h light/dark cycle (lights on from 19:00 h to 07:00 h) and had free access to food and water. The rats were housed and tested in the same room. A radio, playing softly, provided background noise in the room. All testing was performed between 09:00 h and 18:00 h.
AP-61 was dissolved in 0.5% methylcellulose (MC) and 2% Tween 80. The solutions were prepared daily. Doses of 0.01, 0.03 and 0.1 mg/kg of AP-61 or vehicle were administered p.o. (injection volume was 2 ml/kg), immediately after T1. […]
A testing session comprised two trials, each with durations of 3 min. […] The times spent in exploring each object during T1 and T2 were recorded manually with a personal computer. […]
The measures were the times spent by rats in exploring each object during T1 and T2. […] From these exploration times the following variables were calculated: e1, e2 and d2 (Table 1). […]

[2] = test system: male Wistar rats; test: Xylazine/ketamine-induced anesthesia test (surrogate measure of emesis); assay type: in vivo, rat; conditions: for relative recovery time (duration of anesthesia, vehicle set at 100%), mean: 3.5 h before induction of anesthesia
Text: The mechanism of the emetic response associated with PDE4-Is is thought to be a consequence of the inhibition of PDE4 in non-target tissues. It is believed that PDE4-Is produce a pharmacological response analogous to that of presynaptic α2-adrenoreceptor inhibition by elevating intracellular levels of cAMP in noradrenergic neurons. Therefore, by removing an inhibitory mechanism, PDE4-Is are thought to modulate the release of mediators including 5-HT, substance P and noradrenaline involved in the onset of the emetic reflex mediated at emetic brainstem centers. PDE4-Is have the ability to reverse α2-adrenoreceptor agonist-mediated anesthesia with xylazine/ketamine in rodents (Robichaud et al., 2002). This effect is very likely mediated at the locus coeruleus in the brain stem. This confirms the postulate that PDE4-Is have effects similar to those of a2-adrenoreceptor antagonists. Since rodents are non-vomiting species, the ability of a PDE4-I to shorten a2-adrenergic receptor-mediated xylazine/ketamine anesthesia is therefore used as well-established surrogate measure of emesis in rodents.
as §1, with “Twenty” for “One group of twenty”
AP-61 was dissolved in 0.5% methylcellulose (MC) and 2% Tween 80. […] (injection volume was 2 ml/kg). […] The emetic properties of the PDE4-I rolipram are already assessed (Bruno et al., 2011). In the current study rolipram was used as a reference compound for AP-61 and applied in at dosages of 0.1 and 0.3 mg/kg. Rolipram was dissolved in 0.5% MC and 2% tween 80 (injection volume 2 ml/kg, route of administration was p.o.). For the induction of anesthesia, 10 mg/kg ketamine (Eurovet Animal Health, The Netherlands) and 10 mg/kg xylazine (CEVA Santé Animale, The Netherlands) were used (both administered i.p.). All solutions were prepared daily.
Rats were anesthetized with a combination of xylazine and ketamine (both 10 mg/kg, i.p). Fifteen minutes after induction of the anesthesia, rats were treated with rolipram or vehicle (0.1 or 0.3 mg/kg, p.o.) and the animals were placed in a dorsal position. The restoration of the righting reflex, i.e. when the animal no longer remained on its back and turned itself spontaneously to the prone position, was used as an endpoint to determine the duration of anesthesia. Animals that were not anesthetized after 15 min were excluded from the analysis.
AP-61 reached peak concentration at 5 h after oral administration. Because of this, induction of anesthesia with the combination of xylazine and ketamine was done 3.5 h after oral administration of AP-61. Animals were then placed in a dorsal position. The time delay to the recovery of the righting reflex was used as an endpoint to measure the duration of the anesthesia. Again, animals that were not anesthetized after 15 min were excluded from the analysis.
The restoration of the righting reflex, i.e. when the animal no longer remained on its back and turned itself spontaneously to the prone position (standing on four paws), was used as an endpoint to determine the duration to the anesthesia. Each test day a vehicle group was included. Outliers were removed from the analysis (Dixon-test). Each daily vehicle was set at 100% while the other treatment conditions of that day were expressed as a percentage of the vehicle. The following formula was used:
Duration of anesthesia after drug treatment (min)×(100/mean of duration of anesthesia of vehicle treatment (min)) […]

[3] = Plasma Tmax after oral administration; assay type: in vivo

SMILES | d2, discrimination index between the new and familiar objects for T2 ([1]; AP61 0.01 mg/kg p.o. immediately after T1) | d2, discrimination index between the new and familiar objects for T2 ([1]; AP61 0.1 mg/kg p.o. immediately after T1) | relative recovery time (duration of anesthesia, vehicle set at 100%), mean ([2]; AP61 0.03 mg/kg p.o.) | relative recovery time (duration of anesthesia, vehicle set at 100%), mean ([2]; AP61 0.1 mg/kg p.o.) | relative recovery time (duration of anesthesia, vehicle set at 100%), mean ([2]; AP61 3.0 mg/kg p.o.) | effect on duration of xylazine/ketamine-induced anesthesia compared with vehicle (summary) ([2]; AP-61 0.03-3.0 mg/kg p.o., all doses) | emetic properties / gastrointestinal toxicity (conclusion) ([2]; AP-61, all doses tested, within the effective dose range) | Tmax [3] | effect on duration of the xylazine/ketamine-induced anesthesia (summary) ([2]; oral rolipram, 2 mg/kg, 15 min after induction of anesthesia (so in the source))
CCc1nc(C2CCC(C(C)(C)C)CC2)n2nc(-c3ccccc3)[nH]c(=O)c12 (stereo not drawn) [AP61, 7-(4-tert-butylcyclohexyl)-5-ethyl-2-phenylimidazo[5,1-f][1,2,4]triazin-4(3H)-one] | 0.10 (0.09) | 0.01 (0.08) | 97.16% | 107.16% | 108.37% | none of the doses led to a shortened duration | does not show any signs of gastrointestinal toxicity | 5 h | 
COc1ccc(C2CNC(=O)C2)cc1OC1CCCC1 (stereo not drawn) [rolipram, reference compound] |  |  |  |  |  |  |  |  | significant reduction
